The numbers were not newly measured in US20250228808A1, “COMPOSITIONS AND METHODS FOR THE TREATMENT OF CORONAVIRUS DISEASES” (priority 2022, published 2025), which cites them from elsewhere.

For series [1] the following is noted: Lu S C 2000.
The conditions of series [2]: entry into the cell.
For series [3] the following is noted: Sansone 2011.

With `N[C@@H](CCC(=O)N[C@@H](CS)C(=O)NCC(=O)O)C(=O)O` [GSH, glutathione], the “half-life in the blood” value in series [1] is given as “seconds to minutes”. The membrane permeability result in series [2] is given as “membrane-impermeable”.
Take `CC(=O)N[C@@H](CS)C(=O)O` [NAC, N-acetyl cysteine]: the “fraction of dose excreted by the kidneys” value in series [3] was “one-third”.
